Test results from publication PMC6225423, “Synthesis, Structural and Thermal Studies of 3-(1-Benzyl-1,2,3,6-tetrahydropyridin-4-yl)-5-ethoxy-1H-indole (D2AAK1_3) as Dopamine D2 Receptor Ligand” (Molecules : A Journal of Synthetic Chemistry and Natural …, 2018).
pKi: −log10 of the molar value.

Biological target: T1, human dopamine D2 receptor (Homo sapiens, UniProt P14416)
T1 construct: gene DRD2; cloned human D2S receptor
Assay: [3H]spiperone competition radioligand binding, membranes of CHO-K1 cells stably expressing human D2S

T1 sequence (P14416 1-414 isoform P14416-2): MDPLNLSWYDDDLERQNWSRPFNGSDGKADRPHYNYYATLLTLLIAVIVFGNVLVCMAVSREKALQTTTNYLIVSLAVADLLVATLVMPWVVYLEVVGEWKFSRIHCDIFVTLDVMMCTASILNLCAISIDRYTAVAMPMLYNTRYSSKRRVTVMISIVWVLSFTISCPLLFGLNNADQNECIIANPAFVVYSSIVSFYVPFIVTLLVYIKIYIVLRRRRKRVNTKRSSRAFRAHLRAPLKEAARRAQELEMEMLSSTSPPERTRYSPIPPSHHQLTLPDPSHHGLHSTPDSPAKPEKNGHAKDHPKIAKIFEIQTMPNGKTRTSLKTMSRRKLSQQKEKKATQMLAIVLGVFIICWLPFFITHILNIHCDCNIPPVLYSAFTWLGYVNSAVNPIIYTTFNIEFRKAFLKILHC

CCOc1ccc2[nH]cc(C3=CCN(Cc4ccccc4)CC3)c2c1 [D2AAK1_3, 3-(1-Benzyl-1,2,3,6-tetrahydropyridin-4-yl)-5-ethoxy-1H-indole]
pKi: 6.82
